Patent US10899787B2, “Cytarabine prodrug nucleoside cyclic phosphate compound based on liverspecific delivery and use” (ZHEJIANG PALO ALTO PHARMACEUTICALS, INC., priority 2017, dated 2021)

Target: T1, Recombinant human CYP3A4 enzyme (Homo sapiens, UniProt P08684)
T1 construct: purchased BD company lot number 3100772
Assay: Evaluation of recombinant human CYP3A4 metabolism in vitro
Assay type: in vitro ADME
Conditions: for conversion rate relative to that of PA4102: recombinant human CYP3A4 enzyme in vitro, ratio to PA4102 (Table 4); for Elimination Rate in vitro: recombinant human CYP3A4 enzyme, test compound 100 nM, NADPH 2 mM, pH 7.4, samples at 1, 5, 10, 20, 30 min
Description: Example 12 Evaluation of Recombinant Human CYP3A4 Metabolism In Vitro
Recombinant human CYP3A4 enzyme was purchased from BD company, lot number 3100772.
Test compounds PA4101, PA4102, PA4103, PA4104, PA4105, PA4106, PA4107, PA4108, PA4109, PA4110 and PA4111 were synthesized by Zhejiang Palo Alto Pharmaceuticals, Inc., and dissolved in methanol (from Sinopharm Chemical Reagent Co., Ltd.) to prepare a storage solution of a concentration of 100 μM.
Enzymatic reaction was carried out in 100 mM KH2PO4 buffer solution (pH 7.4), the concentration of the test compounds was 100 nM, the concentration of human liver microsomes was 0.1 nmol/ml, and NADPH concentration was 2 mM. The reaction was initiated by NADPH finally added, and after reaction for 1, 5, 10, 20, 30 min in a constant-temperature shaking water bath kettle, samples were taken, and 1.5 times of volume of methanol was immediately added to terminate the reaction.
3) Sample Processing and Analysis Method
The centrifugation was carried out for 20 minutes at a maximum speed of 13,600 rpm using an Eppendorf tabletop centrifuge. Supernatant was taken, and after being blow-dried by a nitrogen blower, the supernatant was re-dissolved into a mobile phase A (0.1% formic acid v/v aqueous solution).
Analytical column: Waters, Acquity UPLC HSS T3 column • Flow rate: 0.5 ml/min • Column temperature: 45° C.
III Mass Spectrometry Condition
An ion source was an electrospray ionization source (Turbo Ionspray); a positive ion mode; a capillary voltage was 3.0 kV; a temperature was 500° C.; a desolventizing airflow was 1000 L/h; and scan time, cone voltage, collision energy and ion response for quantitative analysis are shown in the following table (Table 3): […]

T1 sequence (P08684 whole entry): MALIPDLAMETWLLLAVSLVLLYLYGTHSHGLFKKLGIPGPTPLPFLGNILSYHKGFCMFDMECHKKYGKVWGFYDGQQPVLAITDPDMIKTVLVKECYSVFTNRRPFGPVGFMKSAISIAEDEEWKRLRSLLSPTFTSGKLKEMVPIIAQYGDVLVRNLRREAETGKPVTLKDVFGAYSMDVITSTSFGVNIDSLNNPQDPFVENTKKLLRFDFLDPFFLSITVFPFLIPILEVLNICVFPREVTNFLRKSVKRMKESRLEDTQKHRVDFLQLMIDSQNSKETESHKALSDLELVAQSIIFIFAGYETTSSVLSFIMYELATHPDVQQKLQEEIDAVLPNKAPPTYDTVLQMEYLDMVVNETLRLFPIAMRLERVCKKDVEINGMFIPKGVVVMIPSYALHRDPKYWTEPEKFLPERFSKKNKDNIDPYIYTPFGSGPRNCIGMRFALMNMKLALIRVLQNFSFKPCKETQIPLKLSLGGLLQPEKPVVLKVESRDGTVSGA

Row | Structure (SMILES) | conversion rate relative to that of PA4102 | Elimination Rate in vitro [ml/min/gprot]
1 | Nc1ccn([C@@H]2O[C@H](COP3(=O)OCC[C@H](c4cc(Cl)ccc4F)O3)[C@@H](O)[C@@H]2O)c(=O)n1 (some centres unmarked) [PA4101] | ~10.7 times | 35.0
2 | Nc1ccn([C@@H]2O[C@H](COP3(=O)OCC[C@H](c4ccncc4)O3)[C@@H](O)[C@@H]2O)c(=O)n1 (some centres unmarked) [PA4102, reference compound] |  | 3.26
3 | Nc1ccn([C@@H]2O[C@H](COP3(=O)OCC[C@H](c4cc(Cl)cc(Cl)c4)O3)[C@@H](O)[C@@H]2O)c(=O)n1 (some centres unmarked) [PA4103] |  | 23.1
4 | Nc1ccn([C@@H]2O[C@H](COP3(=O)OCC[C@H](c4cc(F)cc(F)c4)O3)[C@@H](O)[C@@H]2O)c(=O)n1 (some centres unmarked) [PA4104] |  | 2.93
5 | Nc1ccn([C@@H]2O[C@H](COP3(=O)OCC[C@H](c4ccc(F)c(Cl)c4)O3)[C@@H](O)[C@@H]2O)c(=O)n1 (some centres unmarked) [PA4105] |  | 5.79
6 | Nc1ccn([C@@H]2O[C@H](COP3(=O)OCC[C@H](c4ccc(Cl)c(F)c4)O3)[C@@H](O)[C@@H]2O)c(=O)n1 (some centres unmarked) [PA4106] |  | 14.9
7 | Nc1ccn([C@@H]2O[C@H](COP3(=O)OCC[C@H](c4cccc(Cl)c4F)O3)[C@@H](O)[C@@H]2O)c(=O)n1 (some centres unmarked) [PA4107] |  | 8.28
8 | Nc1ccn([C@@H]2O[C@H](COP3(=O)OCC[C@H](c4cc(F)ccc4Cl)O3)[C@@H](O)[C@@H]2O)c(=O)n1 (some centres unmarked) [PA4108] | ~7.24 times | 23.6
9 | Nc1ccn([C@@H]2O[C@H](COP3(=O)OCC[C@H](c4cc(Cl)ccc4Cl)O3)[C@@H](O)[C@@H]2O)c(=O)n1 (some centres unmarked) [PA4109] | about 20.6 times | 67.3
10 | Nc1ccn([C@@H]2O[C@H](COP3(=O)OCC[C@H](c4cc(F)ccc4F)O3)[C@@H](O)[C@@H]2O)c(=O)n1 (some centres unmarked) [PA4110] |  | 8.37
11 | Nc1ccn([C@@H]2O[C@H](COP3(=O)OCC[C@H](c4cccc(F)c4F)O3)[C@@H](O)[C@@H]2O)c(=O)n1 (some centres unmarked) [PA4111] |  | 9.55
